Assay results as given in patent US10479780B2, “Aminopyrazole derivatives” (Chugai Seiyaku Kabushiki Kaisha, priority 2015, dated 2019).
Read-outs that look alike come from different tables or passages of the source.

Assays:
Format in all cases: biochemical
human Yes1 enzyme = target: T1, human Yes1 enzyme (Homo sapiens, UniProt P07947); experiment: Yes1 enzyme inhibitory activity (time-resolved fluorometry, biotinylated peptide phosphorylation); conditions: read-out: YES_IC50
T1 construct: made in house
How it was run: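 Inhibition was expressed against a compound-free control to give IC50, using TR-FRET read-out (Eu-cryptate anti-pTyr antibody, streptavidin-XL665).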

human Lck enzyme = target: T2, human Lck enzyme (Homo sapiens, UniProt P06239); experiment: Lck enzyme inhibitory activity (time-resolved fluorometry, biotinylated peptide phosphorylation); conditions: read-out: LCK_IC50
T2 construct: purchased Carna Biosciences, Inc. 08-170
How it was run: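 Readout pairs a europium cryptate-labelled anti-phosphotyrosine antibody with XL665-streptavidin, measured by time-resolved fluorescence. IC50 derived from percent inhibition against untreated controls.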

human Src enzyme = target: T3, human Src enzyme (Homo sapiens, UniProt P12931); experiment: Src enzyme inhibitory activity (time-resolved fluorometry, biotinylated peptide phosphorylation); conditions: read-out: SRC_IC50
T3 construct: purchased Carna Biosciences, Inc. 08-173
How it was run: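 Compounds were tested for blocking tyrosine phosphorylation of a biotinylated peptide substrate by recombinant human Src. Phosphorylated product was quantified by time-resolved fluorometry using europium cryptate and XL665 conjugates, and IC50 was calculated against the compound-free control.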

[1] = biotinylated peptide phosphorylation

T3 sequence (P12931 whole entry): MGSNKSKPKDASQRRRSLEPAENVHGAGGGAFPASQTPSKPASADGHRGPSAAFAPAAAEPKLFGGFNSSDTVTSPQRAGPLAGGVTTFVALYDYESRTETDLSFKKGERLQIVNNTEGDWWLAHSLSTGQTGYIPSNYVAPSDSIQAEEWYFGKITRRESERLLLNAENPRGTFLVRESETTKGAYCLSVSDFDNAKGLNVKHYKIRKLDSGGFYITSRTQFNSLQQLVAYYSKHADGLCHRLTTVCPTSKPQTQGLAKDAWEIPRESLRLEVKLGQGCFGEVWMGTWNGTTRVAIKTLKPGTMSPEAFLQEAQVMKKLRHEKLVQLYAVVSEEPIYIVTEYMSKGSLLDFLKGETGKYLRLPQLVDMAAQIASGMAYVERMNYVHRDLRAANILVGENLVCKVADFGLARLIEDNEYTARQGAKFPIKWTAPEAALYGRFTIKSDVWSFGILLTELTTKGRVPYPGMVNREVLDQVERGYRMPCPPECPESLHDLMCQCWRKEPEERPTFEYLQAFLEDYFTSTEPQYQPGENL
T2 sequence (P06239 whole entry): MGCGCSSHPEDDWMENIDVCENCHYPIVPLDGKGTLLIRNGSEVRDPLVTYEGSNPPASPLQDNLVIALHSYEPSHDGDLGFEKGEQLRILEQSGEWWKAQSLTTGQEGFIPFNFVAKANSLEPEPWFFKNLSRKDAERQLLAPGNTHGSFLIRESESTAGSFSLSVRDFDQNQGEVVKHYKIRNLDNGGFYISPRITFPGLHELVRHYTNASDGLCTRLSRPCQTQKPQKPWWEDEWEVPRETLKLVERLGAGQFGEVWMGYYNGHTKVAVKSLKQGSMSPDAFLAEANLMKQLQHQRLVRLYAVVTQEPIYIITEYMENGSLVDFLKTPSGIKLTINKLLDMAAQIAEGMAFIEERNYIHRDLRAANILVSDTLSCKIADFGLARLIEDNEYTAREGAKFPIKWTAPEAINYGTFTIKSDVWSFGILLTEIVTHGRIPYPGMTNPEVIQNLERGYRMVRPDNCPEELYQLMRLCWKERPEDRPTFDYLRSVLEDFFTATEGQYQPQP
T1 sequence (P07947 whole entry): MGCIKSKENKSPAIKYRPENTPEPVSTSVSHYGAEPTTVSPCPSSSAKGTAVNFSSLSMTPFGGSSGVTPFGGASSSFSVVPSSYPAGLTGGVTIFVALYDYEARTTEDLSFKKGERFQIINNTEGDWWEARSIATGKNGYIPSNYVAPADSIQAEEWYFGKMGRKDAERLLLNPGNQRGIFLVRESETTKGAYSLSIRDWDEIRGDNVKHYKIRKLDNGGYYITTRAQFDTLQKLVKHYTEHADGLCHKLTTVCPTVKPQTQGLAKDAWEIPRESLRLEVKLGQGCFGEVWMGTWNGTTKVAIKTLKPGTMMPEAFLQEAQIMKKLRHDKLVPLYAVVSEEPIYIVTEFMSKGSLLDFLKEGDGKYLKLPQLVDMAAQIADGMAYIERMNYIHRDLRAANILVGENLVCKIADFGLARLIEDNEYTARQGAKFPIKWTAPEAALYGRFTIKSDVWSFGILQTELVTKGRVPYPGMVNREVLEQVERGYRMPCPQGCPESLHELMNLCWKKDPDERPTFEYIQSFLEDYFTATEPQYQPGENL

Row | Structure (SMILES) | IC50 (human Yes1 enzyme; [1]) [nM] | IC50 (human Lck enzyme; [1]) [nM] | IC50 (human Src enzyme; [1]) [nM] | IC50 (human Yes1 enzyme) [nM] | IC50 (human Lck enzyme) [nM] | IC50 (human Src enzyme) [nM]
1 | Cc1cc2cc(C(=O)c3cnn(-c4ccc(Oc5ccccc5F)cc4C)c3N)[nH]c2cc1N1C(=O)NC2(CCNCC2)C1=O [Example 5-1-364, 3-(2-(5-amino-1-(4-(2-fluorophenoxy)-2-methylphenyl)-1H-pyrazole-4-carbonyl)-5-methyl-1H-indol-6-yl)-1,3,8-triazaspiro[4.5]decane-2,4-dione] | – | – | – | 1.3 | 5.4 | 18
2 | Cc1cc2cc(C(=O)c3cnn(-c4c(C)cc(Oc5ccccc5F)cc4F)c3N)[nH]c2cc1N1CCCS1(=O)=O [Example 4-2-114, [5-amino-1-[2-fluoro-4-(2-fluorophenoxy)-6-methylphenyl]pyrazol-4-yl]-[6-(1,1-dioxo-1,2-thiazolidin-2-yl)-5-methyl-1H-indol-2-yl]methanone] | 5 | 16 | 72 | – | – | –
3 | Cc1cc(Oc2ccccc2F)ccc1-n1ncc(C(=O)c2cc3cc(OC(F)F)c(N4CCC(N5CCOCC5)CC4)cc3[nH]2)c1N [Example 4-25-032, [5-amino-1-[4-(2-fluorophenoxy)-2-methylphenyl]pyrazol-4-yl]-[5-(difluoromethoxy)-6-(4-morpholin-4-ylpiperidin-1-yl)-1H-indol-2-yl]methanone] | 0.83 | 11 | 48 | – | – | –
4 | Cc1cc(Oc2ccccc2F)ccc1-n1ncc(C(=O)c2cc3cc(OCC(F)F)c(N4CCOC4=O)cc3[nH]2)c1N [Example 4-21-003, 3-[2-[5-amino-1-[4-(2-fluorophenoxy)-2-methylphenyl]pyrazole-4-carbonyl]-5-(2,2-difluoroethoxy)-1H-indol-6-yl]-1,3-oxazolidin-2-one] | 0.53 | 1.5 | 2.4 | – | – | –
5 | Cc1cc(Oc2ccccc2F)ccc1-n1ncc(C(=O)c2cc3cc(F)c(N4C(=O)NC5(COC5)C4=O)cc3[nH]2)c1N [Example 5-1-376, 7-[2-[5-amino-1-[4-(2-fluorophenoxy)-2-methylphenyl]pyrazole-4-carbonyl]-5-fluoro-1H-indol-6-yl]-2-oxa-5,7-diazaspiro[3.4] octane-6,8-dione] | – | – | – | 1.4 | 4 | 14
6 | Cc1cc(Oc2c(F)cccc2F)ncc1-n1ncc(C(=O)c2cc3cc(OC4CCN(C5CCCC5)CC4)c(-c4ccccc4F)cc3[nH]2)c1N [Example 5-1-310, [5-amino-1-[6-(2,6-difluorophenoxy)-4-methylpyridin-3-yl]pyrazol-4-yl]-[5-(1-cyclopentylpiperidin-4-yl)oxy-6-(2-fluorophenyl)-1H-indol-2-yl]methanone] | – | – | – | 3.4 | 22 | 38
7 | Cc1cc(Oc2c(F)cccc2F)ncc1-n1ncc(C(=O)c2cc3cc(OC4CCN(C(C)C)CC4)c(-c4cccs4)cc3[nH]2)c1N [Example 5-1-239, [5-amino-1-[6-(2,6-difluorophenoxy)-4-methylpyridin-3-yl]pyrazol-4-yl]-[5-(1-propan-2-ylpiperidin-4-yl)oxy-6-thiophen-2-yl-1H-indol-2-yl]methanone] | – | – | – | 5 | 16 | 40

Next, values leading:

Row | IC50 (human Yes1 enzyme; [1]) [nM] | IC50 (human Lck enzyme; [1]) [nM] | IC50 (human Src enzyme; [1]) [nM] | IC50 (human Yes1 enzyme) [nM] | IC50 (human Lck enzyme) [nM] | IC50 (human Src enzyme) [nM] | Structure (SMILES)
8 | 3.6 | 180 | 430 | – | – | – | Cc1cc(Oc2ccccc2F)ccc1-n1ncc(C(=O)c2cc3cc(F)c(NS(=O)(=O)c4cncc(Cl)c4)cc3[nH]2)c1N [Example 5-1-542, N-[2-[5-amino-1-[4-(2-fluorophenoxy)-2-methylphenyl]pyrazole-4-carbonyl]-5-fluoro-1H-indol-6-yl]-5-chloropyridine-3-sulfonamide]
9 | – | – | – | 19 | 88 | 630 | Cc1cc2cc(C(=O)c3cnn(-c4cnc(Oc5c(F)cccc5F)cc4C)c3N)[nH]c2cc1NS(=O)(=O)N1CCOC[C@H]1C [Example 5-1-292, (3R)-N-[2-[5-amino-1-[6-(2,6-difluorophenoxy)-4-methylpyridin-3-yl]pyrazole-4-carbonyl]-5-methyl-1H-indol-6-yl]-3-methylmorpholine-4-sulfonamide]
10 | 4.5 | 64 | 79 | – | – | – | Cc1ccccc1Oc1cc(C)c(-n2ncc(C(=O)c3cc4cc(F)c(NS(=O)(=O)C5CC5)cc4[nH]3)c2N)cn1 [Example 4-2-047, N-[2-[5-amino-1-[4-methyl-6-(2-methylphenoxy)pyridin-3-yl]pyrazole-4-carbonyl]-5-fluoro-1H-indol-6-yl]cyclopropanesulfonamide]
11 | 17 | 590 | 1200 | – | – | – | Cc1cc(Oc2c(F)cccc2F)ncc1-n1ncc(C(=O)c2cc3cc(F)c(NS(=O)(=O)c4cc(F)cc(F)c4)cc3[nH]2)c1N [Example 5-1-563, N-[2-[5-amino-1-[6-(2,6-difluorophenoxy)-4-methylpyridin-3-yl]pyrazole-4-carbonyl]-5-fluoro-1H-indol-6-yl]-3,5-difluorobenzenesulfonamide]
12 | – | – | – | 9.7 | 120 | 610 | COc1ccc(S(=O)(=O)Nc2cc3[nH]c(C(=O)c4cnn(-c5cnc(Oc6c(F)cccc6F)cc5C)c4N)cc3cc2OCC(F)F)cc1 [Example 5-1-299, N-[2-[5-amino-1-[6-(2,6-difluorophenoxy)-4-methylpyridin-3-yl]pyrazole-4-carbonyl]-5-(2,2-difluoroethoxy)-1H-indol-6-yl]-4-methoxybenzenesulfonamide]
13 | – | – | – | 0.99 | 11 | 52 | Cc1cc2cc(C(=O)c3cnn(-c4ccc(Oc5ccccc5F)c(F)c4F)c3N)[nH]c2cc1NS(C)(=O)=O [Example 5-1-214, N-[2-[5-amino-1-[2,3-difluoro-4-(2-fluorophenoxy)phenyl]pyrazole-4-carbonyl]-5-methyl-1H-indol-6-yl]methanesulfonamide]
14 | 4.6 | 44 | 140 | – | – | – | Cc1cc(Oc2cc(F)ccc2Cl)ncc1-n1ncc(C(=O)c2cc3cc(F)c(NS(C)(=O)=O)cc3[nH]2)c1N [Example 4-2-034, N-[2-[5-amino-1-[6-(2-chloro-5-fluorophenoxy)-4-methylpyridin-3-yl]pyrazole-4-carbonyl]-5-fluoro-1H-indol-6-yl]methanesulfonamide]
15 | 0.44 | 0.97 | 5.2 | – | – | – | Cc1cc2[nH]c(C(=O)c3cnn(-c4cnc(Oc5ccccc5F)cc4C)c3N)cc2cc1NS(C)(=O)=O [Example 4-2-052, N-[2-[5-amino-1-[6-(2-fluorophenoxy)-4-methylpyridin-3-yl]pyrazole-4-carbonyl]-6-methyl-1H-indol-5-yl]methanesulfonamide]
16 | 17 | 590 | 3500 | – | – | – | Cc1cc(C)c(S(=O)(=O)Nc2cc3[nH]c(C(=O)c4cnn(-c5cnc(Oc6ccccc6F)cc5C)c4N)cc3cc2C)c(C)c1 [Example 5-1-461]
17 | 5.3 | 180 | 830 | – | – | – | Cc1cc(Oc2ccccc2F)ccc1-n1ncc(C(=O)c2cc3cc(F)c(NS(=O)(=O)c4cc(F)cc(F)c4)cc3[nH]2)c1N [Example 5-1-562, N-[2-[5-amino-1-[4-(2-fluorophenoxy)-2-methylphenyl]pyrazole-4-carbonyl]-5-fluoro-1H-indol-6-yl]-3,5-difluorobenzenesulfonamide]
